Test results from article PMC9942557, “Bolaamphiphile Analogues of 12-bis-THA Cl2 Are Potent Antimicrobial Therapeutics with Distinct Mechanisms of Action against Bacterial, Mycobacterial, and Fungal Pathogens” (mSphere, 2022).
Read-outs that look alike come from different tables or passages of the source.

Columns and labels:
[1] = system: Klebsiella pneumoniae NCTC 13368; experiment: Broth microdilution MIC; assay type: cell-based
Klebsiella pneumoniae M6 = experiment: Broth microdilution MIC; assay type: cell-based
[2] = system: Acinetobacter baumannii AYE; experiment: Broth microdilution MIC; assay type: cell-based; conditions: Acinetobacter baumannii AYE
[3] = system: Acinetobacter baumannii ATCC 17978; experiment: Broth microdilution MIC; assay type: cell-based
[4] = system: Pseudomonas aeruginosa PAO1; experiment: Broth microdilution MIC; assay type: cell-based
[5] = system: Pseudomonas aeruginosa NCTC 13437; experiment: Broth microdilution MIC; assay type: cell-based
[6] = system: Escherichia coli NCTC 12923; experiment: Broth microdilution MIC; assay type: cell-based
[7] = system: EMR Staphylococcus aureus 15 NCTC 13616; experiment: Broth microdilution MIC; assay type: cell-based; conditions: EMR Staphylococcus aureus 15 NCTC 13616
[8] = system: EMR Staphylococcus aureus 16 NCTC 13277; experiment: Broth microdilution MIC; assay type: cell-based; conditions: EMR Staphylococcus aureus 16 NCTC 13277
[9] = system: VS Enterococcus faecalis NCTC 775; experiment: Broth microdilution MIC; assay type: cell-based
[10] = system: VR Enterococcus faecalis NCTC 12201; experiment: Broth microdilution MIC; assay type: cell-based; conditions: VR Enterococcus faecalis NCTC 12201
[11] = system: VR Enterococcus faecium NCTC 12204; experiment: Broth microdilution MIC; assay type: cell-based; conditions: VR Enterococcus faecium NCTC 12204
C. albicans 3179 = experiment: Broth microdilution MIC; assay type: cell-based, Candida albicans; conditions: C. albicans 3179
C. albicans 3281 = experiment: Broth microdilution MIC; assay type: cell-based, Candida albicans; conditions: C. albicans 3281
C. auris temp probe = experiment: Broth microdilution MIC; assay type: cell-based, Candida auris; conditions: C. auris temp probe
C. glabrata 8018 = experiment: Broth microdilution MIC; assay type: cell-based; conditions: C. glabrata 8018
C. tropicalis 8760 = experiment: Broth microdilution MIC; assay type: cell-based; conditions: C. tropicalis 8760
C. krusei 3876 = experiment: Broth microdilution MIC; assay type: cell-based
C. parapsilosis 3209 = experiment: Broth microdilution MIC; assay type: cell-based
C. parapsilosis = experiment: Broth microdilution MIC; assay type: cell-based
HEK293 = experiment: In vitro toxicity for cell line; assay type: cell-based, human; conditions: HEK293; average ± standard error from 3 independent repeats
Text: (§1) TABLE 2 Toxicity of bolaamphiphiles for two cell lines^a | column: Toxicity (EC50 [μg/ml]) of: / 12-bis-THA Cl2; Toxicity (EC50 [μg/ml]) of: / Dequalinium; Toxicity (EC50 [μg/ml]) of: / Quino-bola; Toxicity (EC50 [μg/ml]) of: / Penta-bola; Toxicity (EC50 [μg/ml]) of: / Hepta-bola; Toxicity (EC50 [μg/ml]) of: / Octa-bola; Toxicity (EC50 [μg/ml]) of: / Octa-C10; Toxicity (EC50 [μg/ml]) of: / Octa-C8; Toxicity (EC50 [μg/ml]) of: / Octa-C6

HeLa = experiment: In vitro toxicity for cell line; assay type: cell-based, human; conditions: average ± standard error from 3 independent repeats
Text: as §1

[12] = system: Prevotella bivia NCTC 11156; experiment: Anaerobic broth microdilution MIC (BHI, 5% horse serum); assay type: cell-based
G. vaginalis NCTC 10287 = experiment: as above; assay type: cell-based, Gardnerella vaginalis
G. vaginalis KC1 = experiment: as above; assay type: cell-based, Gardnerella vaginalis
G. vaginalis KC2 = experiment: as above; assay type: cell-based, Gardnerella vaginalis
G. vaginalis KC3 = experiment: as above; assay type: cell-based, Gardnerella vaginalis
P. aeruginosa PAO1 [13] = experiment: Checkerboard synergy assay; assay type: cell-based, Pseudomonas aeruginosa
P. aeruginosa RP73 = experiment: Checkerboard synergy assay; assay type: cell-based, Pseudomonas aeruginosa
P. aeruginosa NCTC 13437 [14] = experiment: Checkerboard synergy assay; assay type: cell-based, Pseudomonas aeruginosa
[15] = system: Ac. pleuropneumoniae Shope; experiment: Checkerboard synergy assay (BHI, 5% FBS, 0.01% NAD); assay type: cell-based, Actinobacillus pleuropneumoniae
[16] = system: Ac. pleuropneumoniae 2331; experiment: as above; assay type: cell-based, Actinobacillus pleuropneumoniae
[17] = system: Ac. pleuropneumoniae 2356; experiment: as above; assay type: cell-based, Actinobacillus pleuropneumoniae
[18] = system: Ac. pleuropneumoniae 3370; experiment: as above; assay type: cell-based, Actinobacillus pleuropneumoniae
EMRSA-15 = assay type: in vivo, Galleria mellonella
A. baumannii ATCC 17978 [19] = experiment: G. mellonella burn wound infection model; assay type: in vivo, Galleria mellonella; conditions: alone; for larvae rescued: 96 h
Text: In addition to the intrahemocoelic infection/therapy models described above, a recently described G. mellonella burn wound model was adopted ([37]). The burn was created using the flat head of a nail, which was heated in a blue Bunsen burner flame until red hot, cooled for 15 s, and superficially applied for 2 s to generate a 2-mm^2 burn. Larvae were then infected with a single colony of A. baumannii ATCC 17978 applied directly to the burn site, or sterile phosphate-buffered saline was applied as a control. Treatment was applied topically 1 h after infection in a volume of 5 μL. Survival was monitored over 96 h.

K. pneumoniae NCTC 13368 = experiment: Fixed-concentration (0.25× MIC bolalipid) synergy broth microdilution; assay type: cell-based, Klebsiella pneumoniae; conditions: Klebsiella pneumoniae, NCTC13368, K. pneumoniae NCTC 13368, read-out: MIC of aminoglycoside
K. pneumoniae M6 = experiment: as above; assay type: cell-based; conditions: Klebsiella pneumoniae
A. baumannii AYE = experiment: as above; assay type: cell-based; conditions: Acinetobacter baumannii
A. baumannii ATCC 17978 [20] = experiment: as above; assay type: cell-based; conditions: Acinetobacter baumannii, ATCC17978, A. baumannii ATCC 17978, read-out: MIC of aminoglycoside
P. aeruginosa PAO1 [21] = experiment: as above; assay type: cell-based, Pseudomonas aeruginosa; conditions: Pseudomonas aeruginosa, PAO1, P. aeruginosa PAO1, read-out: MIC of aminoglycoside
P. aeruginosa NCTC 13437 [22] = experiment: as above; assay type: cell-based, Pseudomonas aeruginosa; conditions: Pseudomonas aeruginosa, NCTC13437, P. aeruginosa NCTC 13437, read-out: MIC of aminoglycoside
E. coli NCTC 12923 = experiment: as above; assay type: cell-based; conditions: Escherichia coli, NCTC12923, E. coli NCTC 12923, read-out: MIC of aminoglycoside
[23] = system: Pseudomonas aeruginosa RP73; experiment: Intrahemocoelic G. mellonella infection model; assay type: in vivo, Galleria mellonella; conditions: 96 h
[24] = system: Pseudomonas aeruginosa RP73; experiment: In vitro pharmacodynamic (PD) assay; conditions: P. aeruginosa RP73; combination 2:1 (wt/wt)
Method: In vitro PD assays were performed with Pseudomonas aeruginosa RP73 cultured in Roswell Park Memorial Institute 1640 medium (RPMI) supplemented with 5% Mueller-Hinton broth (MHB) ([35]). Bacteria were cultured overnight in 10 mL of RPMI–5% MHB at 37°C and diluted just prior to plate inoculation to an OD600 of 0.002. Stock solutions of colistin or tobramycin were prepared in sterile MilliQ water at a concentration of 200× MIC. Octa-bola was prepared in methanol at 2,000× MIC and diluted in water to 200× MIC. A dilution series was made in the top row of a polypropylene 96-well plate from 200× MIC to 0.2× MIC in a volume of 100 μL, to which 100 μL of the bacterial suspension was added to have a total of 1 × 10^6 log-phase CFU in 200 μL. The first time zero sample was taken <30 s after addition of bacteria to the plate, with further samples taken at appropriate intervals thereafter. […] Fifteen microliters was removed from each well, diluted 1:1,000 in phosphate-buffered saline, and plated onto RPMI–5% MH agar plates. The plates were incubated at 37°C overnight for CFU counting.
CFU data were log10 transformed, and the bacterial net growth rate was determined from the increase or decrease in CFU during the time of exposure to the antibiotics as the coefficient of a linear regression of log10 CFU as a function of time. The intercept of the regression was fixed by forcing the regression lines through the first CFU measurement (0 min) at a given antimicrobial concentration. The pharmacodynamic function according to Regoes et al. ([36]) describes the relationship between bacterial net growth rate (ψ) and the concentration of an antimicrobial (a): ψmax − ([ψmax − ψmin][a/zMIC])^κ/([a/zMIC]^κ − [ψmin/ψmax]). Fitting this function to the net bacterial growth rates in OriginPro 2020 (OriginLab Corporation, Northampton, MA) generates the parameters ψmin and ψmax (minimum and maximum growth rates, respectively), zMIC (the pharmacodynamic MIC), and κ (a measure of the cooperativity). […]

[25] = in the presence of 0.25× MIC Octa-Bola
[26] = in the presence of 0.25× MIC Octa-C6
[27] = in the presence of 0.25× MIC Octa-C10
[28] = No bola, read-out: MIC of aminoglycoside
[29] = in the presence of 0.25× MIC Octa-Bola, read-out: MIC of aminoglycoside
[30] = in the presence of 0.25× MIC Octa-C6, read-out: MIC of aminoglycoside
[31] = in the presence of 0.25× MIC Octa-C10, read-out: MIC of aminoglycoside

`Nc1c2c([n+](CCCCCCCCCC[n+]3c4c(c(N)c5ccccc53)CCCCCC4)c3ccccc13)CCCCCC2` [Octa-C10] showed an MIC [1] of 32 µg/mL, an MIC (Klebsiella pneumoniae M6) of 16 µg/mL and an MIC [2] of 16 µg/mL. It also gave an MIC [3] of 8 µg/mL, an MIC [4] of over 32 µg/mL and an MIC [5] of over 32 µg/mL. For the same compound, the MIC [6] was 2 µg/mL, the MIC [7] was 0.25 µg/mL and the MIC [8] was 0.25 µg/mL. The MIC [9] was 2 µg/mL, the MIC [10] was 1 µg/mL and the MIC [11] was 0.25 µg/mL. The MIC (C. albicans 3179) was 0.5 µg/mL, the MIC (C. albicans 3281) was 1 µg/mL and the MIC (C. auris temp probe) was 4 µg/mL. The MIC (C. glabrata 8018) was 0.5 µg/mL, the MIC (C. tropicalis 8760) was 0.25 µg/mL and the MIC (C. krusei 3876) was 2 µg/mL. The MIC (C. parapsilosis 3209) was 2 µg/mL, the MIC (C. parapsilosis) was 4 µg/mL and the “Toxicity (EC50)” value (HEK293) was 7.0 ± 0.5 µg/mL. The “Toxicity (EC50)” value (HeLa) was 10.7 ± 0.3 µg/mL, the MIC [12] was 0.125 µg/mL and the MIC (G. vaginalis NCTC 10287) was 0.5 to 1 µg/mL. It also gave an MIC (G. vaginalis KC1) of 0.5 to 1 µg/mL, an MIC (G. vaginalis KC2) of 2 µg/mL and an MIC (G. vaginalis KC3) of 0.5 µg/mL. The “MIC alone Bolalipid” value (P. aeruginosa PAO1 [13]) was 64 µg/mL, the “MIC alone Bolalipid” value (P. aeruginosa RP73) was 8 µg/mL and the “MIC alone Bolalipid” value (P. aeruginosa NCTC 13437 [14]) was 32 µg/mL. For the same compound, the “MIC alone Bolalipid” value ([15]; Octa-C10/enrofloxacin) was 1 µg/mL, the “MIC alone Bolalipid” value ([15]; Octa-C10/streptomycin) was 1 µg/mL and the “MIC alone Bolalipid” value ([16]; Octa-C10/enrofloxacin) was 4 to 8 µg/mL. The “MIC alone Bolalipid” value ([16]; Octa-C10/streptomycin) was 4 to 8 µg/mL, the “MIC alone Bolalipid” value ([17]; Octa-C10/enrofloxacin) was 4 to 8 µg/mL and the “MIC alone Bolalipid” value ([17]; Octa-C10/streptomycin) was 4 to 8 µg/mL. For the same compound, the “MIC alone Bolalipid” value ([18]; Octa-C10/enrofloxacin) was 4 to 8 µg/mL, the “MIC alone Bolalipid” value ([18]; Octa-C10/streptomycin) was 4 to 8 µg/mL and the protection (EMRSA-15; in vivo) was “none of them providing significant protection”. The infected larvae rescued (EMRSA-15; lowest dose, 0.1 mg/kg) was “approximately a third”, the larvae rescued (A. baumannii ATCC 17978 [19]; 5 mg/kg topical) was 48% and the larvae rescued (A. baumannii ATCC 17978 [19]; 10 mg/kg topical) was 60%. For the same compound, the protection (A. baumannii ATCC 17978 [19]; lower doses (2.5 and 1.25 mg/kg)) was “ineffective”.

`NC[C@H]1O[C@H](O[C@H]2[C@H](O)[C@@H](O[C@H]3O[C@H](CO)[C@@H](O)[C@H](N)[C@H]3O)[C@H](N)C[C@@H]2N)[C@H](N)C[C@@H]1O` [Tobramycin] was tested, and the MIC (K. pneumoniae NCTC 13368; No bola) was 8 µg/mL, the MIC (K. pneumoniae NCTC 13368; [25]) was 4 µg/mL and the MIC (K. pneumoniae NCTC 13368; [26]) was 16 µg/mL. It also gave an MIC (K. pneumoniae NCTC 13368; [27]) of 8 µg/mL, an MIC (K. pneumoniae M6; [28]) of 1 µg/mL and an MIC (K. pneumoniae M6; [29]) of 0.5 µg/mL. For the same compound, the MIC (K. pneumoniae M6; [30]) was 1 µg/mL, the MIC (K. pneumoniae M6; [31]) was 0.25 µg/mL and the MIC (A. baumannii AYE; [28]) was 64 µg/mL. The MIC (A. baumannii AYE; [29]) was 8 µg/mL, the MIC (A. baumannii AYE; [30]) was 16 µg/mL and the MIC (A. baumannii AYE; [31]) was 4 µg/mL. The MIC (A. baumannii ATCC 17978 [20]; No bola) was 2 µg/mL, the MIC (A. baumannii ATCC 17978 [20]; [25]) was 0.125 µg/mL and the MIC (A. baumannii ATCC 17978 [20]; [26]) was 0.5 µg/mL. It also gave an MIC (A. baumannii ATCC 17978 [20]; [27]) of 0.5 µg/mL, an MIC (P. aeruginosa PAO1 [21]; No bola) of 1 µg/mL and an MIC (P. aeruginosa PAO1 [21]; [25]) of 0.5 µg/mL. It also gave an MIC (P. aeruginosa PAO1 [21]; [26]) of 0.5 µg/mL, an MIC (P. aeruginosa PAO1 [21]; [27]) of 0.25 µg/mL and an MIC (P. aeruginosa NCTC 13437 [22]; No bola) of 64 µg/mL. For the same compound, the MIC (P. aeruginosa NCTC 13437 [22]; [25]) was 8 µg/mL, the MIC (P. aeruginosa NCTC 13437 [22]; [26]) was 8 µg/mL and the MIC (P. aeruginosa NCTC 13437 [22]; [27]) was 4 µg/mL. The MIC (E. coli NCTC 12923; No bola) was 2 µg/mL, the MIC (E. coli NCTC 12923; [25]) was 1 µg/mL and the MIC (E. coli NCTC 12923; [26]) was 2 µg/mL. For the same compound, the MIC (E. coli NCTC 12923; [27]) was 1 µg/mL, the “MIC alone Antibiotic” value (P. aeruginosa PAO1 [13]) was 0.5 µg/mL and the “MIC alone Antibiotic” value (P. aeruginosa RP73) was 2 µg/mL. For the same compound, the “MIC alone Antibiotic” value (P. aeruginosa NCTC 13437 [14]) was 64 µg/mL, the larvae rescued ([23]; 5 mg/kg) was 37.5% and the larvae rescued ([23]; 50 mg/kg, 1 × 10^2 CFU per larva) was 97.5%. The “bactericidal activity (minimum growth rate, ψmin)” value [24] was “weakly bactericidal”.
